Our source for the IC50 values is patent publication US10961200B2, “Small molecule inhibitors of lactate dehydrogenase and methods of use thereof” (THE UNITED STATES OF AMERICA, AS REPRESENTED BY THE …, priority 2014, dated 2021).

The target of one experiment is Human LDHA (Homo sapiens (Human), UniProt P00338). Nature of the experiment: human LDHA primary biochemical assay (resazurin/diaphorase coupled, fluorescence). As to conditions: LDHA inhibitory activity, assay of Example 1; activity level classes. An excerpt:
Test compounds were placed in a Greiner Bio-One (Monroe, N.C.) 1536-well black solid bottom assay plate. 200 millimolar (mM) Tris HCl, pH 7.4, 100 micromolar […] EDTA and 0.01% TWEEN-20™, final concentration, was used as the assay buffer. The LDHA reagent was 2 nanomolar (nM) Human LDHA (Meridian Life Science, Inc., Memphis, Tenn.), final concentration, in assay buffer.
(Resazurin is reduced to fluorescent resorufin, in cell work by metabolically active cells.)
Regarding `O=C(O)c1csc(-n2cc(-c3ccc(F)c(F)c3)c3cccnc32)n1` [Compound 23, 2-(3-(3,4-difluorophenyl)-1H-pyrrolo[2,3-b]pyridin-1-yl)thiazole-4-carboxylic acid], the IC50 is more than 57 µM.
The molecule `O=C(O)c1csc(-n2nc(-c3ccc(F)c(F)c3)c3cccnc32)n1` [Compound 25, 2-(3-(3,4-difluorophenyl)-1H-pyrazolo[3,4-b]pyridin-1-yl)thiazole-4-carboxylic acid] showed an IC50 of more than 57 µM.
In the case of `CS(=O)(=O)c1ccc(Cc2cn(-c3nc(C(=O)O)cs3)nc2-c2ccccc2)cc1` [Compound 27, 2-(4-(4-(methylsulfonyl)benzyl)-3-phenyl-1H-pyrazol-1-yl)thiazole-4-carboxylic acid], the IC50 is more than 57 µM.
With `O=C(O)c1csc(-n2cc(Cc3ccc(C(F)(F)F)cc3)c(-c3ccccc3)n2)n1` [Compound 28, 2-(3-phenyl-4-(4-(trifluoromethyl)benzyl)-1H-pyrazol-1-yl)thiazole-4-carboxylic acid], the IC50 is more than 57 µM.
Take `O=C(O)c1csc(-n2cc(-c3cccc(-c4ccccc4)c3)c3cccnc32)n1` [Compound 29, 2-(3-([1,1′-biphenyl]-3-yl)-1H-pyrrolo[2,3-b]pyridin-1-yl)thiazole-4-carboxylic acid]: the half-maximal inhibitory concentration (IC50) was more than 57 µM.
In turn, `Nc1c(Cc2ccc(S(N)(=O)=O)cc2)c(-c2ccc(F)c(F)c2)nn1-c1nc(C(=O)O)cs1` [Compound 38, 2-(5-amino-3-(3,4-difluorophenyl)-4-(4-sulfamoylbenzyl)-1H-pyrazol-1-yl)thiazole-4-carboxylic acid] gave a 50% inhibitory concentration (IC50) of less than 0.1 µM.
For the molecule `NS(=O)(=O)c1ccc(Cc2c(-c3ccc(F)c(F)c3)nn(-c3nc(C(=O)O)cs3)c2C(F)(F)F)cc1` [Compound 39, 2-(3-(3,4-difluorophenyl)-4-(4-sulfamoylbenzyl)-5-(trifluoromethyl)-1H-pyrazol-1-yl)thiazole-4-carboxylic acid], the IC50 was less than 0.1 µM.
The molecule `NS(=O)(=O)c1ccc(Cc2cn(-c3nc(C(=O)O)cs3)nc2-c2ccc(F)c(F)c2)cc1` [Compound 41, 2-(3-(3,4-difluorophenyl)-4-(4-sulfamoylbenzyl)-1H-pyrazol-1-yl)thiazole-4-carboxylic acid] displayed an IC50 of less than 0.1 µM.
`NS(=O)(=O)c1ccc(Cc2c(-c3ccccc3)nn(-c3nc(C(=O)O)cs3)c2C(F)(F)F)cc1` [Compound 44, 2-(3-phenyl-4-(4-sulfamoylbenzyl)-5-(trifluoromethyl)-1H-pyrazol-1-yl)thiazole-4-carboxylic acid] had an IC50 of less than 0.1 µM.
`NS(=O)(=O)c1ccc(Cc2c(-c3ccccc3)nn(-c3nc(C(=O)O)cs3)c2I)cc1` [Compound 45, 2-(5-iodo-3-phenyl-4-(4-sulfamoylbenzyl)-1H-pyrazol-1-yl)thiazole-4-carboxylic acid] came in with an IC50 of less than 0.1 µM.
The molecule `NS(=O)(=O)c1ccc(NCc2c(-c3ccccc3)n[nH]c2O)cc1` [Compound 49, 4-(((5-hydroxy-3-phenyl-1H-pyrazol-4-yl)methyl)amino)benzenesulfonamide] showed a concentration for half-maximal inhibition (IC50) of more than 57 µM.
`N#Cc1c(Cc2ccc(S(N)(=O)=O)cc2)c(-c2ccccc2)nn1-c1nc(C(=O)O)cs1` [Compound 50]: the IC50 is less than 0.1 µM.
Take `COc1c(Cc2ccc(S(N)(=O)=O)cc2)c(-c2ccc(F)c(F)c2)nn1-c1nc(C(=O)O)cs1` [Compound 60, 2-(3-(3,4-difluorophenyl)-5-methoxy-4-(4-sulfamoylbenzyl)-1H-pyrazol-1-yl)thiazole-4-carboxylic acid]: the IC50 lay within 0.1 to 1 µM.
Consider `O=C(O)c1csc(-n2nc(-c3ccc(F)c(F)c3)cc2CO)n1` [Compound 64, 2-(3-(3,4-difluorophenyl)-5-(hydroxymethyl)-1H-pyrazol-1-yl)thiazole-4-carboxylic acid], for which the IC50 was more than 57 µM.
Turning to `Cc1nn(-c2nc(C(=O)O)cs2)c(O)c1Cc1ccc(S(N)(=O)=O)cc1` [Compound 66, 2-(5-hydroxy-3-methyl-4-(4-sulfamoylbenzyl)-1H-pyrazol-1-yl)thiazole-4-carboxylic acid], the IC50 is more than 57 µM.
Consider `NC(=O)c1ccc(Cc2c(-c3cccc(-c4ccccc4)c3)nn(-c3nc(C(=O)O)cs3)c2O)cc1` [Compound 67, 2-(3-([1,1′-biphenyl]-3-yl)-4-(4-carbamoylbenzyl)-5-hydroxy-1H-pyrazol-1-yl)thiazole-4-carboxylic acid], for which the IC50 is more than 57 µM.

Still in this experiment, the particulars now being: read-out: Inhibitory activity IC50.
Take `NS(=O)(=O)c1ccc(Cc2cn(-c3nc(C(=O)O)cs3)nc2-c2ccccc2)cc1` [Compound 19, 2-(3-phenyl-4-(4-sulfamoylbenzyl)-1H-pyrazol-1-yl)thiazole-4-carboxylic acid]: the IC50 was less than 0.1 µM.
With `O=C(O)c1csc(-n2cc(Br)c(-c3cccc(-c4ccccc4)c3)n2)n1` [Compound 21, 2-(3-([1,1′-biphenyl]-3-yl)-4-bromo-1H-pyrazol-1-yl)thiazole-4-carboxylic acid], the IC50 fell in the range of 1 to 57 µM.
Take `O=C(O)c1csc(-n2ccc(-c3cccc(-c4ccccc4)c3)n2)n1` [Compound 22, 2-(3-([1,1′-biphenyl]-3-yl)-1H-pyrazol-1-yl)thiazole-4-carboxylic acid]: the IC50 fell in the range of 1 to 57 µM.
Turning to `NS(=O)(=O)c1ccc(Oc2c(-c3ccccc3)nn(-c3nc(C(=O)O)cs3)c2O)cc1` [Compound 24, 2-(5-hydroxy-3-phenyl-4-(4-sulfamoylphenoxy)-1H-pyrazol-1-yl)thiazole-4-carboxylic acid], the IC50 is 0.1 to 1 µM.
The same measure, in the same setting: for `NS(=O)(=O)c1ccc(Cc2cn(-c3nc(C(=O)O)cs3)c3ncccc23)cc1` [Compound 26, 2-(3-(4-sulfamoylbenzyl)-1H-pyrrolo[2,3-b]pyridin-1-yl)thiazole-4-carboxylic acid] the value was 0.1 to 1 µM; for `NS(=O)(=O)c1ccc(Cc2cn(-c3nc(C(=O)O)cs3)c3ccc(C(=O)N4CCOCC4)cc23)cc1` [Compound 30, 2-(5-(morpholine-4-carbonyl)-3-(4-sulfamoylbenzyl)-1H-indol-1-yl)thiazole-4-carboxylic acid], 1 to 57 µM; for `NS(=O)(=O)c1ccc(Cc2cn(-c3nc(C(=O)O)cs3)c3ccc(F)cc23)cc1` [Compound 31, 2-(5-fluoro-3-(4-sulfamoylbenzyl)-1H-indol-1-yl)thiazole-4-carboxylic acid], 0.1 to 1 µM.
On to `NS(=O)(=O)c1ccc(Cc2cn(-c3nc(C(=O)O)cs3)c3ccc(CN4CCOCC4)cc23)cc1` [Compound 32, 2-(5-(morpholinomethyl)-3-(4-sulfamoylbenzyl)-1H-indol-1-yl)thiazole-4-carboxylic acid], for which the IC50 is 1 to 57 µM.
For `NS(=O)(=O)c1ccc(Oc2cn(-c3nc(C(=O)O)cs3)nc2-c2ccccc2)cc1` [Compound 33, 2-(3-phenyl-4-(4-sulfamoylphenoxy)-1H-pyrazol-1-yl)thiazole-4-carboxylic acid], the IC50 was less than 0.1 µM.
Still for that read-out and setting: with `NS(=O)(=O)c1ccc(Cc2cn(-c3nc(C(=O)O)cs3)c3ccncc23)cc1` [Compound 34, 2-(3-(4-sulfamoylbenzyl)-1H-pyrrolo[3,2-c]pyridin-1-yl)thiazole-4-carboxylic acid] the figure was 0.1 to 1 µM.
In the case of `NS(=O)(=O)c1ccc(Cc2nn(-c3nc(C(=O)O)cs3)c3ccccc23)cc1` [Compound 35, 2-(3-(4-sulfamoylbenzyl)-1H-indazol-1-yl)thiazole-4-carboxylic acid], the IC50 fell in the range of 1 to 57 µM.
Regarding `NS(=O)(=O)c1ccc(Cc2cn(-c3nc(C(=O)O)cs3)c3ccc(OC4CCOCC4)cc23)cc1` [Compound 36, 2-(3-(4-sulfamoylbenzyl)-5-((tetrahydro-2H-pyran-4-yl)oxy)-1H-indol-1-yl)thiazole-4-carboxylic acid], the IC50 lay within 0.1 to 1 µM.
Take `NS(=O)(=O)c1ccc(Cc2cn(-c3nc(C(=O)O)cs3)c3cc(C(=O)N4CCOCC4)ccc23)cc1` [Compound 37, 2-(6-(morpholine-4-carbonyl)-3-(4-sulfamoylbenzyl)-1H-indol-1-yl)thiazole-4-carboxylic acid]: the IC50 fell in the range of 1 to 57 µM.
Take `CCOC(=O)c1csc(-n2nc(-c3cccc(-c4ccccc4)c3)c(Cc3ccc(S(N)(=O)=O)cc3)c2N)n1` [Compound 56, ethyl 2-(3-([1,1′-biphenyl]-3-yl)-5-amino-4-(4-sulfamoylbenzyl)-1H-pyrazol-1-yl)thiazole-4-carboxylate]: the IC50 was 1 to 57 µM.
Regarding `Cc1sc(-n2nc(-c3ccccc3)c(Cc3ccc(S(N)(=O)=O)cc3)c2N)nc1C(=O)O` [Compound 57, 2-(5-amino-3-phenyl-4-(4-sulfamoylbenzyl)-1H-pyrazol-1-yl)-5-methylthiazole-4-carboxylic acid], the IC50 was in the range of 0.1 to 1 µM.
Take `CCOC(=O)c1csc(-n2nc(-c3ccccc3)c(Cc3ccc(S(N)(=O)=O)cc3)c2N)n1` [Compound 58, ethyl 2-(5-amino-3-phenyl-4-(4-sulfamoylbenzyl)-1H-pyrazol-1-yl)thiazole-4-carboxylate]: the IC50 fell in the range of 1 to 57 µM.
For `N#CCc1c(Cc2ccc(S(N)(=O)=O)cc2)c(-c2ccccc2)nn1-c1nc(C(=O)O)cs1` [Compound 59, 2-(5-(cyanomethyl)-3-phenyl-4-(4-sulfamoylbenzyl)-1H-pyrazol-1-yl)thiazole-4-carboxylic acid], the IC50 was in the range of 0.1 to 1 µM.
For `CCOc1c(Cc2ccc(S(N)(=O)=O)cc2)c(-c2ccc(F)c(F)c2)nn1-c1nc(C(=O)O)cs1` [Compound 61, 2-(3-(3,4-difluorophenyl)-5-ethoxy-4-(4-sulfamoylbenzyl)-1H-pyrazol-1-yl)thiazole-4-carboxylic acid], the IC50 lay within 0.1 to 1 µM.
Regarding `O=C(O)c1csc(-n2nc(-c3ccccc3)cc2C(F)(F)F)n1` [Compound 62, 2-(3-phenyl-5-(trifluoromethyl)-1H-pyrazol-1-yl)thiazole-4-carboxylic acid], the IC50 lay in the range of 1 to 57 µM.
For `O=C(O)c1csc(-n2nc(-c3cccc(-c4ccccc4F)c3)cc2O)n1` [Compound 63, 2-(3-(2′-fluoro-[1,1′-biphenyl]-3-yl)-5-hydroxy-1H-pyrazol-1-yl)thiazole-4-carboxylic acid], the IC50 is more than 57 µM.

Broadly, the IC50 is the concentration that inhibits the measured activity by half.
